The target in experiment [1] is T1, human cloned CHRM2 receptor (M2_CHO cells) (Homo sapiens, UniProt P08172).
T1 construct: expressed in transfected cells; host or cells: CHO-K1
T1 sequence (P08172 1-466): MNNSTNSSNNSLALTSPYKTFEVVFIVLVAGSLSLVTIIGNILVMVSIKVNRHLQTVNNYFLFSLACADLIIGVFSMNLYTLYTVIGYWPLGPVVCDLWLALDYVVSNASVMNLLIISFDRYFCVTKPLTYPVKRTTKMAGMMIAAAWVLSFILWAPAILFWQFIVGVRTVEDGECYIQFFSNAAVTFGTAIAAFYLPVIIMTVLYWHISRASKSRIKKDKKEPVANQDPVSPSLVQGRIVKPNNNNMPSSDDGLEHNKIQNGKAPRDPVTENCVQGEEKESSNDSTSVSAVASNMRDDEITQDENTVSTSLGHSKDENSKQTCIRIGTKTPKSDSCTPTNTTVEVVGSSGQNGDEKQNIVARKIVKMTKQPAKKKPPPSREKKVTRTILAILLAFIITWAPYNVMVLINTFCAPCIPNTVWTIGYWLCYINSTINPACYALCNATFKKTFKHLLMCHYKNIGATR
As to the kind of experiment: CHRM2 Ca++ Flux Assay (agonist mode, FDSS 7000EX). In kind it is cell-based. Particulars: for M2 FDSS PA: Percent Activity measured to EC100 of Carbachol; for EC50: agonist mode, geometric mean if tested more than once, read-out: M2 FDSS EC50. As to the method:
The above examples were characterized by measuring the intracellular mobilization of Ca++ ions caused by signaling events mediated by the receptor. The Intra-cellular Calcium flux levels were captured by the highly sensitive Ca++ indicator, Calcium Assay Kit (BD Biosciences, Catalog Number 640178). The fluorescent activity from all receptors were monitored by the fluorescent imager, FDSS 7000EX (Hamamatsu) over a span of 3 minutes.
CHO-K1 cells stably expressing the human cloned CHRM2 receptor (M2_CHO cells) were grown and maintained in a monolayer culture with F12/HAM (Life Technologies) supplemented with 10% Fetal Bovine Serum, 1× Pen-Strep, and 0.4 mg/mL Geneticin in a humidified atmosphere (5% CO2) at 37° C. The cultures were grown to 80-9 0% confluency in T150 flasks (Corning) and washed with 1×DPBS and lifted with 0.05% Trypsin (Life Technologies). The cells were then spun (1K rpm, 3 minutes) and frozen using Recovery Cell Culture Freezing Media (Gibco Technologies). Cells were stored in liquid nitrogen and thawed a day before the assay.
Prior to the day of the assay, stable M2 CHO cells were thawed and plated on Greiner 384 well TC treated plate at a density of 12K cells/well and kept overnight in a humidified atmosphere (5% CO2) at 37° C. The following day, the cells were loaded with Ca^++ dye (BD Biosciences) using Loading Buffer (HBSS +Ca/+Mg, 20 mM HEPES, 2.5 mM Probenecid) and placed back in cell incubator for a minimum of 1 hour and maximum of 2 hours. After incubation, the dye was replaced with Assay Buffer (HBSS −Ca/−Mg, 20 mM HEPES, 2.5 mM Probenecid) supplemented with 20 μM ATP (Sigma Aldrich) and kept at room temperature for 60 minutes prior before running on cell imager. The FDSS 7000EX (Hamamatsu) was used to acquire Ca^++ traces from cells in response to compound treatment and the data was used to generate dose response curves in agonist mode. All compounds were serially diluted in DMSO then prepared in Assay Buffer for Ca^++ flux studies. The dose response curves were generated from the average of triplicate wells obtained from each data point and used a non-linear regression of four parameter dose response algorithm. The Percent Activity (PA) was measured to EC100 of Carbachol.

Experiment [2] concerns the target T2, human cloned CHRM5 receptor (M5_CHO) (Homo sapiens, UniProt P08912).
T2 construct: expressed in transfected cells; host or cells: CHO (M5_CHO)
T2 sequence (P08912 1-532): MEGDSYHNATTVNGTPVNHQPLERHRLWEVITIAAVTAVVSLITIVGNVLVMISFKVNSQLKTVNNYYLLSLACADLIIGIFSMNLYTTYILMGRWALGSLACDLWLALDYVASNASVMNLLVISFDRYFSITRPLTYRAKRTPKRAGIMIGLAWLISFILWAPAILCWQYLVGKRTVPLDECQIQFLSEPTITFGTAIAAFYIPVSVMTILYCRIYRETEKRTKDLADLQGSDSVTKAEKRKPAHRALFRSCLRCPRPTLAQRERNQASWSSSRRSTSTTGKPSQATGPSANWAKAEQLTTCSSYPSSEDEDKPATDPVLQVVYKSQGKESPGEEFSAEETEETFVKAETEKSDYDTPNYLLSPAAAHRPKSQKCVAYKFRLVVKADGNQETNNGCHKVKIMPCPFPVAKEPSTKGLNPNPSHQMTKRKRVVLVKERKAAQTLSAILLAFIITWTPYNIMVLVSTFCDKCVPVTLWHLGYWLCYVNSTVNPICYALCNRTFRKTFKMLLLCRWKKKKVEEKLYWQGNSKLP
As to the kind of experiment: CHRM5 Ca++ Flux Assay (agonist mode, FDSS 7000EX). In kind it is cell-based. Particulars: for M5 FDSS PA: Percent Activity measured to EC100 of Carbachol; for EC50: agonist mode, geometric mean if tested more than once, read-out: M5 FDSS EC50. Summed up:
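CHO-K1 cells stably expressing human M3 or M5 receptor were dye-loaded for at least 1 h in HBSS with 20 mM HEPES and 2.5 mM probenecid, then given 11-point compound doses in triplicate.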

Experimental findings from patent publication US12122761B2, “2-azaspiro[3.4]octane derivatives as M4 agonists” (NOVARTIS AG, priority 2019, dated 2024) are described below.

Where two headings read alike, the source gives them in different places. Some results are limits rather than exact numbers.

By EC50 is commonly meant the concentration that produces a half-maximal response. With `Cc1ncc(COc2ccccc2C2CCN([C@@H]3CCC4(C3)CN(C(=O)C3(F)CC3)C4)CC2)o1` (single isomer, unassigned) [Example 7V, (R)-(1-fluorocyclopropyl)(6-(4-(2-((2-methyloxazol-5-yl)methoxy)phenyl)piperidin-1-yl)-2-azaspiro[3.4]octan-2-yl)methanone or (S)-(1-fluorocyclopropyl)(6-(4-(2-((2-methyloxazol-5-yl)methoxy)phenyl)piperidin-1-yl)-2-azaspiro[3.4]octan-2-yl)methanone], the “M2 FDSS PA” value in experiment [1] amounted to 0%. Besides, in experiment [2], the “M5 FDSS PA” value amounted to 0% and the EC50 was > 25 µM.
For `Cc1nnc(COc2ccccc2C2CCN([C@@H]3CCC4(C3)CN(C(=O)C3(F)CC3)C4)CC2)o1` (single isomer, unassigned) [Example 7W, (R)-(1-fluorocyclopropyl)(6-(4-(2-((5-methyl-1,3,4-oxadiazol-2-yl)methoxy)phenyl)piperidin-1-yl)-2-azaspiro[3.4]octan-2-yl)methanone or (S)-(1-fluorocyclopropyl)(6-(4-(2-((5-methyl-1,3,4-oxadiazol-2-yl)methoxy)phenyl)piperidin-1-yl)-2-azaspiro[3.4]octan-2-yl)methanone], the “M2 FDSS PA” value in experiment [1] was 0%. In experiment [2], the “M5 FDSS PA” value is 8% and the EC50 worked out at 0.077 µM.
In the same order, the values of `Cc1nc(COc2ccccc2C2CCN([C@@H]3CCC4(C3)CN(C(=O)C3(F)CC3)C4)CC2)no1` (single isomer, unassigned) [Example 7X, (R)-(1-fluorocyclopropyl)(6-(4-(2-((5-methyl-1,2,4-oxadiazol-3-yl)methoxy)phenyl)piperidin-1-yl)-2-azaspiro[3.4]octan-2-yl)methanone or (S)-(1-fluorocyclopropyl)(6-(4-(2-((5-methyl-1,2,4-oxadiazol-3-yl)methoxy)phenyl)piperidin-1-yl)-2-azaspiro[3.4]octan-2-yl)methanone] are 0%, 9% and 0.071 µM.
In the same order, the values of `Cc1nnc(COc2ccccc2C2CCN([C@@H]3CCC4(C3)CN(C(=O)C3(F)CC3)C4)CC2)o1` (single isomer, unassigned) [Example 7Y, (R)-(1-fluorocyclopropyl)(6-(4-(2-((5-methyl-1,3,4-oxadiazol-2-yl)methoxy)phenyl)piperidin-1-yl)-2-azaspiro[3.4]octan-2-yl)methanone or (S)-(1-fluorocyclopropyl)(6-(4-(2-((5-methyl-1,3,4-oxadiazol-2-yl)methoxy)phenyl)piperidin-1-yl)-2-azaspiro[3.4]octan-2-yl)methanone] are 0%, 0% and > 25 µM.
With `Cc1nc(COc2ccccc2C2CCN([C@@H]3CCC4(C3)CN(C(=O)C3(F)CC3)C4)CC2)no1` (single isomer, unassigned) [Example 7Z, (R)-(1-fluorocyclopropyl)(6-(4-(2-((5-methyl-1,2,4-oxadiazol-3-yl)methoxy)phenyl)piperidin-1-yl)-2-azaspiro[3.4]octan-2-yl)methanone or (S)-(1-fluorocyclopropyl)(6-(4-(2-((5-methyl-1,2,4-oxadiazol-3-yl)methoxy)phenyl)piperidin-1-yl)-2-azaspiro[3.4]octan-2-yl)methanone], in experiment [1], the “M2 FDSS PA” value is on record as 0%. In experiment [2], the “M5 FDSS PA” value is 0% and the 50% effective concentration (EC50) was > 25 µM.
For the compound `COc1ccc(Cl)cc1C1CCN([C@H]2CCC3(C2)CN(C(=O)C2(F)CC2)C3)CC1` (single isomer, unassigned) [Example 8A, (S)-(6-(4-(5-chloro-2-methoxyphenyl)piperidin-1-yl)-2-azaspiro[3.4]octan-2-yl)(1-fluorocyclopropyl)methanone or (R)-(6-(4-(5-chloro-2-methoxyphenyl)piperidin-1-yl)-2-azaspiro[3.4]octan-2-yl)(1-fluorocyclopropyl)methanone], the “M2 FDSS PA” value in experiment [1] is given as 0%. For the same compound, in experiment [2], the “M5 FDSS PA” value was found to be 0% and the EC50 is > 25 µM.
`COc1ccc(Cl)cc1C1CCN([C@H]2CCC3(C2)CN(C(=O)C2(F)CC2)C3)CC1` (single isomer, unassigned) [Example 8B, (S)-(6-(4-(5-chloro-2-methoxyphenyl)piperidin-1-yl)-2-azaspiro[3.4]octan-2-yl)(1-fluorocyclopropyl)methanone or (R)-(6-(4-(5-chloro-2-methoxyphenyl)piperidin-1-yl)-2-azaspiro[3.4]octan-2-yl)(1-fluorocyclopropyl)methanone]: the “M2 FDSS PA” value in experiment [1] turned out to be 0%. In experiment [2], the “M5 FDSS PA” value came out at 0% and the EC50 was > 25 µM.
Consider `O=C(C1COC1)N1CC2(CC[C@H](N3CCC(c4ccccc4OC(F)F)CC3)C2)C1.O=C(O)CC(O)(CC(=O)O)C(=O)O` (single isomer, unassigned) [Example 8E, (S)-(6-(4-(2-(difluoromethoxy)phenyl)piperidin-1-yl)-2-azaspiro[3.4]octan-2-yl)(oxetan-3-yl)methanone or (R)-(6-(4-(2-(difluoromethoxy)phenyl)piperidin-1-yl)-2-azaspiro[3.4]octan-2-yl)(oxetan-3-yl)methanone citrate salt], for which, in experiment [1] (citrate salt), the “M2 FDSS PA” value is 26% and the EC50 was found to be 0.096 µM. Also, in experiment [2] (citrate salt), the “M5 FDSS PA” value is 1% and the EC50 came out at 2.16 µM.
On to `O=C(C1COC1)N1CC2(CC[C@H](N3CCC(c4ccccc4OC(F)F)CC3)C2)C1.O=C(O)CC(O)(CC(=O)O)C(=O)O` (single isomer, unassigned) [Example 8F, (S)-(6-(4-(2-(difluoromethoxy)phenyl)piperidin-1-yl)-2-azaspiro[3.4]octan-2-yl)(oxetan-3-yl)methanone or (R)-(6-(4-(2-(difluoromethoxy)phenyl)piperidin-1-yl)-2-azaspiro[3.4]octan-2-yl)(oxetan-3-yl)methanone citrate salt], for which the “M2 FDSS PA” value in experiment [1] (citrate salt) turned out to be 0%. In experiment [2] (citrate salt), the “M5 FDSS PA” value is on record as 0% and the EC50 is > 25 µM.
Turning to `O=C(N1CC2(CC[C@@H](N3CCC(c4ccccc4OC(F)(F)F)CC3)C2)C1)C1(F)CC1` (single isomer, unassigned) [Example 9A, (R)-(1-fluorocyclopropyl)(6-(4-(2-(trifluoromethoxy)phenyl)piperidin-1-yl)-2-azaspiro[3.4]octan-2-yl)methanone or (S)-(1-fluorocyclopropyl)(6-(4-(2-(trifluoromethoxy)phenyl)piperidin-1-yl)-2-azaspiro[3.4]octan-2-yl)methanone], in experiment [1], the “M2 FDSS PA” value was 31% and the EC50 is 11.8 µM. In addition, in experiment [2], the “M5 FDSS PA” value stood at 0% and the EC50 is > 25 µM.
